Measurements from patent publication US8067599B2 (Hoffman-La Roche Inc., priority 2006, dated 2011).
Structures can show the parent of a compound that is named as a salt.

Columns and labels:
HCT 116 cells = assay: CellTiter-Glo assay in HCT 116 cells (antiproliferative activity); type: cell-based; settings: Homo sapiens, HCT-116, 120 h, cell viability after 5 days
Method: The CellTiter-Glo™ Luminescent Cell Viability Assay (Promega) is a homogeneous method of determining the number of viable cells in culture based on quantitation of the ATP present, which signals the presence of metabolically active cells.
HCT 116 cells (human colon carcinoma, ATCC-No. CCl-247) were cultivated in RPMI 1640 medium with GlutaMAX™ 1 (Invitrogen, Cat-No. 61870-010), 5% Fetal Calf Serum (FCS, Sigma Cat-No. F4135 (FBS)); 100 Units/ml penicillin/100 μg/ml streptomycin (=Pen/Strep from Invitrogen Cat. No. 15140). For the assay the cells were seeded in 384 well plates, 1000 cells per well, in the same medium. The next day the test compounds were added in various concentrations ranging from 30 μM to 0.0015 μM (10 concentrations, 1:3 diluted). After 5 days the CellTiter-Glo™ assay was done according to the instructions of the manufacturer (CellTiter-Glo™ Luminescent Cell Viability Assay, from Promega). In brief: the cell-plate was equilibrated to room temperature for approximately 30 minutes and than the CellTiter-Glo™ reagent was added. The contents were carefully mixed for 15 minutes to induce cell lysis. After 45 minutes the luminescent signal was measured in Victor 2, (scanning multiwell spectrophotometer, Wallac).
• Medium: RPMI 1640 with GlutaMAX™ 1 (Invitrogen, Cat-No. 61870), 5% FCS (Sigma Cat.-No. F4135), Pen/Strep (Invitrogen, Cat No. 15140). • HCT116 (ATCC-No. CCl-247): 1000 cells in 60 μl per well of 384 well plate (Greiner 781098, μClear-plate white) • After seeding incubate plates 24 h at 37° C., 5% CO2 2nd. Day: Induction (Treatment with Compounds, 10 Concentrations):
In order to achieve a final concentration of 30 μM as highest concentration 3.5 μl of 10 mM compound stock solution were added directly to 163 μl media. Then step e) of the dilution procedure described below, was followed.

[1] = target: T1, fusion protein corresponding to mouse Abl (27-end) (Mus musculus, UniProt P00520); assay: IC50 determination for inhibitors of Abl kinase (IMAP fluorescence polarization); type: biochemical; settings: 22.8 uM ATP, 37° C., 60 minutes; read-out: IC50 Abl kinase inhibition
T1 construct: fusion protein corresponding to mouse Abl (27-end)
Method: Abl assay was done using fusion protein corresponding to mouse Abl (27-end), fluorescein labeled peptide substrate (with a sequence of EAIYAAPFAKKK) and quantified by Molecular Devices' IMAP fluorescence polarization technology. Compounds were tested in serially diluted concentrations in 384 well plates. Kinase reaction was performed in KAB Buffer (10 mM HEPES, pH 7, 50 mM NaCl, 5 mM MgCl2, 1 mM DTT, 0.1 mM NaVO4, 0.02% BSA), in the presence of 22.8 uM ATP, incubated at 37° C. for 60 minutes. Reaction was stopped by IMAP bead mix (at 1:400 diluted). After incubation at room temperature for 3 hours, the reaction product was analyzed on LJL Acquest (excitation 485 nm and Emission 530 nm).
FP reading (in mP) was used to calculate reaction rate. The assay was semi automated by Tomtec Quadra workstation.

[2] = target: T2, mouse full-length Src protein (Mus musculus, UniProt P05480); assay: IC50 determination for inhibitors of Src kinase (IMAP fluorescence polarization); type: biochemical; settings: 24 uM ATP, 37° C., 60 minutes; read-out: IC50 Src kinase inhibition
T2 construct: mouse full-length Src protein
Method: Src assay was done using mouse full-length Src protein, fluorescein labeled peptide substrate (with a sequence of KVEKIGEGTYGVVYK) and quantified by Molecular Devices' IMAP fluorescence polarization technology. Compounds were tested in serially diluted concentrations in 384 well plates. Kinase reaction was performed in KAB Buffer (10 mM HEPES, pH 7, 50 mM NaCl, 5 mM MgCl2, 1 mM DTT, 0.1 mM NaVO4, 0.02% BSA), in the presence of 24 uM ATP, incubated at 37° C. for 60 minutes. Reaction was stopped by IMAP bead mix (at 1:400 dilution). After incubation at room temperature for 2 hours, the reaction product was analyzed on LJL Acquest (excitation 485 nm and Emission 530 nm).
(§1) FP reading (in mP) was used to calculate reaction rate. The assay was semi-automated by Tomtec Quadra workstation.

[3] = target: human recombinant PDGFR beta (Homo sapiens, UniProt P09619); assay: IC50 determination for inhibitors of PDGFR kinase (IMAP fluorescence polarization); type: biochemical; settings: 48 uM ATP, room temperature, 60 minutes, read-out: IC50 PDGFR kinase inhibition
Method: PDGFR assay was carried out with human recombinant PDGFR beta, fluorescein labeled peptide substrate (with a peptide sequence of ALTSNQEYLDLSMPL) and test compounds (in serial dilution) using 384-well plates. Kinase reaction was performed in MOPS buffer (20 mM MOPS pH 7.1, 5 mM Sodium Acetate, 6.25 mM MgCl2, 0.5 mM EDTA, 1 mM DTT, 0.04 mM NaVO4, 0.02% BSA), in the presence of 48 uM ATP, incubated at room temperature for 60 minutes. Reaction was stopped by IMAP Bead Binding System (Molecular Devices). After incubation at room temperature for 2 hours, the reaction product was analyzed on LJL Acquest.
as §1

T1 sequence (P00520 27-1123 limits assumed): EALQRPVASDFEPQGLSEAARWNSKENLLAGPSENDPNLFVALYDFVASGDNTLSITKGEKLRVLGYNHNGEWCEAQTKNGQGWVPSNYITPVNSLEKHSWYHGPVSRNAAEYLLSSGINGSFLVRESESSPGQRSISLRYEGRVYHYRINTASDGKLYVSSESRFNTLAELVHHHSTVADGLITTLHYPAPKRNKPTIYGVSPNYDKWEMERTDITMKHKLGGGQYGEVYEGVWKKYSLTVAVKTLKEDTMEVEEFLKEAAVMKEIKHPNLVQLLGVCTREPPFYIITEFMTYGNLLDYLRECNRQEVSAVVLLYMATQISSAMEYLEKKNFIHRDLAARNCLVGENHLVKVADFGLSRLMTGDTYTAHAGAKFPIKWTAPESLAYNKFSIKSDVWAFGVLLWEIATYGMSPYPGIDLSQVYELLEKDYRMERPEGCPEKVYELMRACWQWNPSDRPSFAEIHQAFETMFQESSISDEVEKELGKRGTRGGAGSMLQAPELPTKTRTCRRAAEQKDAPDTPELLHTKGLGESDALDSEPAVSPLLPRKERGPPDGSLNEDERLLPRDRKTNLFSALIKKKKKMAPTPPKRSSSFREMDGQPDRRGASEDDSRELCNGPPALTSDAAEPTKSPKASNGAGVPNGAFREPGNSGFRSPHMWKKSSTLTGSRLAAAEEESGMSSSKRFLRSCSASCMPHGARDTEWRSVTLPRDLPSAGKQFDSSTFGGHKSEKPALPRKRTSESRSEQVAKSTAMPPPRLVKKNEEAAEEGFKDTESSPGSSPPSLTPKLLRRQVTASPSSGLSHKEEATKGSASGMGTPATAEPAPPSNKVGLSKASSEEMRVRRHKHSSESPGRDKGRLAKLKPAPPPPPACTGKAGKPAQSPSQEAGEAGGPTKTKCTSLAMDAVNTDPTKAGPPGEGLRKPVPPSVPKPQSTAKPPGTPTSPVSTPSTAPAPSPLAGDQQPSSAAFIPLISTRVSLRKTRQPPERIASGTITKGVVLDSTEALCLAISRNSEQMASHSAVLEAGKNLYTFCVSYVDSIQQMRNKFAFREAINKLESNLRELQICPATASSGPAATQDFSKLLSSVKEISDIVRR
T2 sequence (P05480 whole entry): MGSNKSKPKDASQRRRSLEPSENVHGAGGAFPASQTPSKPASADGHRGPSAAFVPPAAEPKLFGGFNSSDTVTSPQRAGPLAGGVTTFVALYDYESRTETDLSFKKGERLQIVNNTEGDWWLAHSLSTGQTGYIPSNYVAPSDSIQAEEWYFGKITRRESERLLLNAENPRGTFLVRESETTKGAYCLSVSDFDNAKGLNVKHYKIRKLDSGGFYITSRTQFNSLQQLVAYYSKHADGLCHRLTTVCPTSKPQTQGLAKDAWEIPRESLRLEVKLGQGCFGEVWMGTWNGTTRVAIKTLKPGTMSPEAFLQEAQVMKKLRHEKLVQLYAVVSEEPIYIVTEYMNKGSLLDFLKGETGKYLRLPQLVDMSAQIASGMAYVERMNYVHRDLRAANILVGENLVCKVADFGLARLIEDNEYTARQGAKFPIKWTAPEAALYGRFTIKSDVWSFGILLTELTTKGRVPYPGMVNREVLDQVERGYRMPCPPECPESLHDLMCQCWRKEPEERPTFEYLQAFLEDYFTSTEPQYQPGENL
Chain of human recombinant PDGFR beta (P09619 33-1106): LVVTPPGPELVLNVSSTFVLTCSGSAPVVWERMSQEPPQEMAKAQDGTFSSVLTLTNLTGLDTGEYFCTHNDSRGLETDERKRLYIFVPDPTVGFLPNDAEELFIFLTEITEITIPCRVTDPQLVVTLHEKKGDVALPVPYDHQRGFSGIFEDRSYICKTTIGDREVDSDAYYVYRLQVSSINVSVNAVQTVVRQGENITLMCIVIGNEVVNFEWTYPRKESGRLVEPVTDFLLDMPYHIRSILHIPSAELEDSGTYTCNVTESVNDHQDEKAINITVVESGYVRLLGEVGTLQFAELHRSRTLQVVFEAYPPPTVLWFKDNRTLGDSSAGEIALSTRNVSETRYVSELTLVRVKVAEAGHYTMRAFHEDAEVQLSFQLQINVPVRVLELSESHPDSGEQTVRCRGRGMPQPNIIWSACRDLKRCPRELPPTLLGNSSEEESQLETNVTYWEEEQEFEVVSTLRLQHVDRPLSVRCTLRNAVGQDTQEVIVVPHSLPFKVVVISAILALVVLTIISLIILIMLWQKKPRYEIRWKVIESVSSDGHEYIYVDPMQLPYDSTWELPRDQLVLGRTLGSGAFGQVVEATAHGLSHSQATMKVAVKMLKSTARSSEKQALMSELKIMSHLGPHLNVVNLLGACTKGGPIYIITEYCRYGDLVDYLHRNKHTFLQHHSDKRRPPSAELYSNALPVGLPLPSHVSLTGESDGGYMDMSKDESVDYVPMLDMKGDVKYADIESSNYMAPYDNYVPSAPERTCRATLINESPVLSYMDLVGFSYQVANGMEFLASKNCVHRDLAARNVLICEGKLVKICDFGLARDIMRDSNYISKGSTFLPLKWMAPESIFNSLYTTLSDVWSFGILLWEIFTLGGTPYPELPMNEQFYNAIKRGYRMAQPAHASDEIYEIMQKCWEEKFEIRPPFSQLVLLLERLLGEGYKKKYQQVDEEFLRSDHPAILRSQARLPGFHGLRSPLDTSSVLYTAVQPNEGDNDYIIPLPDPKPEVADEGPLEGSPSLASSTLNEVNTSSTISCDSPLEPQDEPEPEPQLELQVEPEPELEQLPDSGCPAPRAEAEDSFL

| SMILES | IC50 (HCT 116 cells) | IC50 [1] | IC50 [2] | IC50 [3] |
| --- | --- | --- | --- | --- |
| CC(C)(C)Oc1ccc(C(=O)Nc2ccc(Cl)c(C(=O)Nc3cnc4[nH]ccc4c3)c2)cc1 [Example 4-5, 5-(4-tert-Butoxy-benzoylamino)-2-chloro-N-(1H-pyrrolo[2,3-b]pyridin-5-yl)-benzamide] | 380 nM | 5 to 1000 nM | 5 to 1000 nM |  |
| CC(C)(C#N)c1cccc(C(=O)Nc2ccc(Cl)c(C(=O)Nc3cnc4[nH]ccc4c3)c2)c1 [Example 4-6, 2-Chloro-5-[3-(cyano-dimethyl-methyl)-benzoylamino]-N-(1H-pyrrolo[2,3-b]pyridin-5-yl)-benzamide] | 100 to 10000 nM | 5 to 1000 nM |  |  |
| CC(Sc1cccc(-c2ccc(C(=O)Nc3ccc(Cl)c(C(=O)Nc4cnc5[nH]ccc5c4)c3)cc2)c1)C(N)=O (stereo not drawn) [Example 1-2, 3′-(1-Carbamoyl-ethylsulfanyl)-biphenyl 4 carboxylic acid [4-chloro 3 (1H-pyrrolo[2,3-b]pyridin-5-ylcarbamoyl)-phenyl]-amide] | 100 to 10000 nM |  |  |  |
| COc1ccc([C@H]2C[C@@H]2C(=O)Nc2ccc(Cl)c(C(=O)Nc3cnc4[nH]ccc4c3)c2)cc1 [Example 4-7, 2-Chloro-5-{[(1S,2S)-2-(4-methoxy-phenyl)-cyclopropanecarbonyl]-amino}-N-(1H-pyrrolo[2,3-b]pyridin-5-yl)-benzamide] | 100 to 10000 nM |  |  |  |
| Cc1ccc(NC(=O)c2cccc(-c3ccccc3)c2)cc1C(=O)Nc1cnc2[nH]cnc2c1 [Example 6-2, Biphenyl-3-carboxylic acid [3-(3H-imidazo[4,5-b]pyridin-6-ylcarbamoyl)-4-methyl-phenyl]-amide] |  |  | 5 to 1000 nM | 1120 nM |
| Cc1n[nH]c(C)c1-c1ccccc1C(=O)Nc1ccc(Cl)c(C(=O)Nc2cnc3[nH]ccc3c2)c1 [Example 3-1] |  |  | 5 to 1000 nM |  |
| Cc1ccc(NC(=O)c2ccccc2)cc1C(=O)Nc1cnc2[nH]cnc2c1 [Example 6-1, 5-benzoylamino-N-(3H-imidazo[4,5-b]pyridin-6-yl)-2-methyl-benzamide] |  | 5 to 1000 nM | 10 nM |  |
| COc1ccccc1/C=C/C(=O)Nc1ccc(Cl)c(C(=O)Nc2cnc3[nH]ccc3c2)c1 [Example 4-4, 2-Chloro-5-[(E)-3-(2-methoxy-phenyl)-acryloylamino]-N-(1H-pyrrolo[2,3-b]pyridin-5-yl)-benzamide] | 100 to 10000 nM |  |  |  |
| O=C(Nc1ccc(Cl)c(C(=O)Nc2cnc3[nH]ccc3c2)c1)c1cccc(-c2ccccc2)c1 [Example 2-1, Biphenyl-3-carboxylic acid[4-chloro-3-(1H-pyrrolo[2,3-b]pyridin-5-ylcarbamoyl)-phenyl]-amide] | 100 to 10000 nM | 5 to 1000 nM | 5 to 1000 nM | 14 nM |
| O=C(Nc1nc2c(c(C(F)(F)F)n1)CCCC2)c1ccc(Cl)c(C(=O)Nc2cnc3[nH]ccc3c2)c1 [Example 8-2, 4-Chloro-N^3-(1H-pyrrolo[2,3-b]pyridin-5-yl)-N^1-(4-trifluoromethyl-5,6,7,8-tetrahydro-quinazolin-2-yl)-isophthalamide hydrochloride] | 100 to 10000 nM |  |  |  |
| Cc1ccc(NC(=O)c2ccc(-c3ccccc3)cc2)cc1C(=O)Nc1cnc2[nH]cnc2c1 [Example 6-3, Biphenyl-4-carboxylic acid [3-(3H-imidazo[4,5-b]pyridin-6-ylcarbamoyl)-4-methyl-phenyl]-amide] |  |  | 5 to 1000 nM |  |
| O=C(Nc1ccc(Cl)c(C(=O)Nc2cnc3[nH]ccc3c2)c1)c1cc(-c2ccccc2Cl)no1 [Example 4-1, 3-(2-Chloro-phenyl)-isoxazole-5-carboxylic acid[4-chloro-3-(1H-pyrrolo[2,3-b]pyridin-5-ylcarbamoyl)-phenyl]-amide] | 100 to 10000 nM | 5 to 1000 nM |  |  |
| O=C(N[C@H]1C[C@@H]1c1ccccc1)c1ccc(Cl)c(C(=O)Nc2cnc3[nH]ccc3c2)c1 [Example 8-3, 4-Chloro-N^1-((1S,2R)-2-phenyl-cyclopropyl)-N^3-(1H-pyrrolo[2,3-b]pyridin-5-yl)-isophthalamide hydrochloride] | 100 to 10000 nM |  |  |  |
| CN(C)CCOc1cccc(-c2ccc(C(=O)Nc3ccc(Cl)c(C(=O)Nc4cnc5[nH]ccc5c4)c3)cc2)c1 [Example 1-1] | 1810 nM | 5 to 1000 nM | 5 to 1000 nM | 10 to 1000 nM |
| Cc1c(C(=O)Nc2ccc(Cl)c(C(=O)Nc3cnc4[nH]ccc4c3)c2)cnn1-c1ccccc1 [Example 4-2, 5-Methyl-1-phenyl-1H-pyrazole-4-carboxylic acid [4-chloro-3-(1H-pyrrolo[2,3-b]pyridin-5-ylcarbamoyl)-phenyl]-amide] |  | 5 to 1000 nM | 5 to 1000 nM |  |

Now from value to molecule:

| IC50 (HCT 116 cells) | IC50 [1] | IC50 [2] | IC50 [3] | SMILES |
| --- | --- | --- | --- | --- |
| 100 to 10000 nM | 5 to 1000 nM | 5 to 1000 nM |  | O=C(Nc1ccc(Cl)c(C(=O)Nc2cnc3[nH]ccc3c2)c1)c1cccc(N2CCOCC2)c1 [Example 4-3, 2-Chloro-5-(3-morpholin-4-yl-benzoylamino)-N-(1H-pyrrolo[2,3-b]pyridin-5-yl)-benzamide] |
| 100 to 10000 nM |  |  |  | O=C(Nc1cccc(-n2cccn2)c1)c1ccc(Cl)c(C(=O)Nc2cnc3[nH]ccc3c2)c1 [Example 8-5, 4-Chloro-N^1-(3-pyrazol-1-yl-phenyl)-N^3-(1H-pyrrolo[2,3-b]pyridin-5-yl)-isophthalamide hydrochloride] |
| 100 to 10000 nM | 5 to 1000 nM | 189 nM | 10 to 1000 nM | O=C(Nc1ccc(Cl)c(C(=O)Nc2cnc3[nH]ccc3c2)c1)c1ccc(N2CCOCC2)cc1 [Example 2-3, 2-Chloro-5-(4-morpholin-4-yl-benzoylamino)-N-(1H-pyrrolo[2,3-b]pyridin-5-yl)-benzamide] |
| 100 to 10000 nM |  |  |  | CN1C(=O)CSc2cc(NC(=O)c3ccc(Cl)c(C(=O)Nc4cnc5[nH]ccc5c4)c3)ccc21 [Example 8-8, 4-Chloro-N^1-(4-methyl-3-oxo-3,4-dihydro-2H-benzo[1,4]thiazin-7-yl)-N^3-(1H-pyrrolo[2,3-b]pyridin-5-yl)-isophthalamide hydrochloride] |
| 100 to 10000 nM |  |  |  | CC(C)(C#N)c1cccc(NC(=O)c2ccc(Cl)c(C(=O)Nc3cnc4[nH]ccc4c3)c2)c1 [Example 8-7, 4-Chloro-N^1-[3-(cyano-dimethyl-methyl)-phenyl]-N^3-(1H-pyrrolo[2,3-b]pyridin-5-yl)-isophthalamide hydrochloride] |
|  | 831 nM | 5 to 1000 nM | 10 to 1000 nM | O=C(Nc1ccc(N2CCOCC2)cc1)c1ccc(Cl)c(C(=O)Nc2cnc3[nH]ccc3c2)c1 [Example 7-1, 4-Chloro-N^1-(4-morpholin-4-yl-phenyl)-N^3-(1H-pyrrolo[2,3-b]pyridin-5-yl)-isophthalamide] |
| 100 to 10000 nM |  |  |  | O=C(Nc1ccc(Oc2ccccc2)nc1)c1ccc(Cl)c(C(=O)Nc2cnc3[nH]ccc3c2)c1 [Example 8-1, 4-Chloro-N^1-(6-phenoxy-pyridin-3-yl)-N^3-(1H-pyrrolo[2,3-b]pyridin-5-yl)-isophthalamide hydrochloride] |
